# Data: ChEMBL document CHEMBL1201862, “PubChem BioAssay data set” (2004)
# Active and inactive are the calls of the source.
# How the values were obtained:
# Jurkat = experiment: SAR Analysis of small molecule inhibitors of […] specific antigen receptor-induced NF-kB activation in a Jurkat cell line using a luminescence assay - Set 3. [Related pubchem assays (depositor defined):AID435022, AID435025, AID465]; assay type: functional, cell-based; settings: Homo sapiens
# [1] = HIV-1 AD8 envelope cell-cell fusion blockers – cherry-pick, dose response (AID 652062); assay type: functional, cell-based;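 also: luciferase signal from cell-cell fusion driven by HIV-1 clade B AD8 Env; potency is for inhibitors of fusion seen as a drop in luminescence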
# [2] = blockers of HIV-1 ZM109 envelope-driven cell-cell fusion – HeLa effector, CEM target cells, luciferase, cherry-pick, dose response (AID 652058); assay type: functional, cell-based;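 also: luciferase signal from HIV-1 Env mediated cell-cell fusion of effector and target cells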
# [3] = blockers of HIV-1 envelope-mediated cell-cell fusion – cherry-pick, dose response (AID 652057); assay type: functional, cell-based
# [4] = HEK-293T cell viability reduction – luminescence, B-cell screen hits, cytotoxicity control for BCR NF-kB inhibitor project, dose response (AID 489021); assay type: functional, cell-based;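 also: HEK-293T cells carrying an NF-kB luciferase reporter; cells exposed to compound for about 14 hours before viability readout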
# A-375 [5] = experiment: MITF: Counter assay: A375 proliferation Measured in Cell-Based System Using Plate Reader - 2084-03_Inhibitor_Dose_DryPowder_Activity. [Related pubchem assays (depositor defined):AID488944]; assay type: functional; settings: Homo sapiens
# HEK293 [6] = experiment: HEK293T cell viability loss, resazurin readout – resazurin fluorescence, cytotoxicity control for NF-kB activator project, SAR follow-up (AID 493251); assay type: functional, cell-based; settings: Homo sapiens
# [7] = viability loss in CEM21 cells – cell-based, plate reader, dry powder, cytotoxicity control, dose response (AID 687026); assay type: functional
# A-375 [8] = experiment: proliferation inhibition in MITF-low A375 cells – cell-based, cherry-pick samples, set 2, counter-screen for MITF modulator project, dose response (AID 540335); assay type: functional; settings: Homo sapiens
# [9] = Luminescence-based counterscreen assay for KLF5 inhibitors: dose response cell-based high throughput screening assay to identify cytotoxic compounds using the IEC-6 intestinal epithelial cell line. [Related pubchem assays: 1700 (Primary screen.), 1834 (Confirmation screen.), 1858 (Summary AID.), 1905 (Counterscreen.)]; assay type: functional
# [10] = luciferase reporter signal suppression in cells – H4 neuroglioma cells, luminescence, dose response (AID 1990); assay type: functional, cell-based
# [11] = target: T1, Microphthalmia-associated transcription factor (Homo sapiens, UniProt O75030); experiment: reducers of TRPM1 reporter luminescence, concentration series – cell-based, SK-MEL-5, cherry-picked, set 3, MITF inhibitor project, dose response (AID 493073); assay type: functional;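 also: SK-MEL-5 melanoma cells with luciferase driven by the MITF target TRPM1 promoter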
# T1 sequence (O75030 whole entry): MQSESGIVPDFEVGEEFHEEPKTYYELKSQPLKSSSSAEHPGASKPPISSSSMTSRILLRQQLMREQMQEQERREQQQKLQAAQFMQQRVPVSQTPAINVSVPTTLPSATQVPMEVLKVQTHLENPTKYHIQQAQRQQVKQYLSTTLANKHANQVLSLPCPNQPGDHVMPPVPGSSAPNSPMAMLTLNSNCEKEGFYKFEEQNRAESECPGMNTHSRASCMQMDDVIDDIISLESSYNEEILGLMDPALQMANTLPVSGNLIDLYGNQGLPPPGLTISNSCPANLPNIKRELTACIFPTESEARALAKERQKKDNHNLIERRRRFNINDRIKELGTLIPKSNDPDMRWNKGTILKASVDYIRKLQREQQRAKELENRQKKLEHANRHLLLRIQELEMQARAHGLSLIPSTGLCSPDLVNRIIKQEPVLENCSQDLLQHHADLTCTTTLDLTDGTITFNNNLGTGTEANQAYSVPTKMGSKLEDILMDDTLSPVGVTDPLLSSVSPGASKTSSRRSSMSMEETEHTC
# [12] = alpha-synuclein stem-loop luciferase translation blockers – H4 neuroglioma cells, luminescence, confirmation (AID 1988); assay type: functional, cell-based
# [13] = Luminescence Cell-Based Dose Response HTS to Identify Inhibitors of 5'UTR Stem-Loop Driven Prion Protein mRNA Translation in H4 Neuroglioblastoma Cells. [Related pubchem assays: 1827 (Project Summary), 1813 (Primary HTS)]; assay type: functional
# [14] = luciferase signal loss, tTA control fusion, HeLa F-luc tTA cells, dry powder, counter-screen for HIV Env fusion inhibitor project, dose response (AID 687021); assay type: functional, cell-based
# HEK293 [15] = experiment: SAR Analysis of small molecule inhibitors of B-cell specific antigen receptor-induced NF-kB activation in a HEK-293T cell line using a luminescence assay - Set 2. [Related pubchem assays (depositor defined):AID435022, AID435025, AID489021]; assay type: functional, cell-based; settings: Homo sapiens
# Cysteine protease ATG4B = Cysteine protease ATG4B (Homo sapiens, UniProt Q9Y4P1); assay type: functional;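 also: Fluorescence-based dose-response confirmation assay measuring inhibition of ATG4B activity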
# [16] = Trypanosoma cruzi growth suppression in host cells – NIH3T3 host cells, beta-gal luminescence, confirmation (AID 2044); assay type: functional, cell-based;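 also: intracellular parasites grown in NIH/3T3 mouse fibroblasts as host cells; luminescent beta-galactosidase reporter signal from transgenic T. cruzi replicating inside host cells; inhibitors lower the luminescence signal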
# Phospholipase A2 = Phospholipase A2 (Homo sapiens, UniProt P04054); assay type: functional;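 also: confirmatory dose-response counterscreen on phospholipase A2, testing hits that came from an ultra-high-throughput screen for ATG4B inhibitors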
# [17] = NIH3T3 cell viability loss – ATP luminescence, mouse fibroblasts, counter-screen, dose response (AID 2010); assay type: functional, cell-based;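 also: cells exposed to compound for about 90 hours before reading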
# [18] = target: Voltage-gated inwardly rectifying potassium channel KCNH2 (Homo sapiens, UniProt Q12809); settings: Potency;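 also: confirmatory quantitative high-throughput screen measuring inhibition of hERG channel activity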
# [19] = target: T2, Replicative DNA helicase DnaB (Mycobacterium tuberculosis, UniProt P9WMR3); experiment: DnaB intein splicing inhibitors, dose response, biochemical, cell-free fluorescence (AID 449749); assay type: functional
# T2 sequence (P9WMR3 whole entry): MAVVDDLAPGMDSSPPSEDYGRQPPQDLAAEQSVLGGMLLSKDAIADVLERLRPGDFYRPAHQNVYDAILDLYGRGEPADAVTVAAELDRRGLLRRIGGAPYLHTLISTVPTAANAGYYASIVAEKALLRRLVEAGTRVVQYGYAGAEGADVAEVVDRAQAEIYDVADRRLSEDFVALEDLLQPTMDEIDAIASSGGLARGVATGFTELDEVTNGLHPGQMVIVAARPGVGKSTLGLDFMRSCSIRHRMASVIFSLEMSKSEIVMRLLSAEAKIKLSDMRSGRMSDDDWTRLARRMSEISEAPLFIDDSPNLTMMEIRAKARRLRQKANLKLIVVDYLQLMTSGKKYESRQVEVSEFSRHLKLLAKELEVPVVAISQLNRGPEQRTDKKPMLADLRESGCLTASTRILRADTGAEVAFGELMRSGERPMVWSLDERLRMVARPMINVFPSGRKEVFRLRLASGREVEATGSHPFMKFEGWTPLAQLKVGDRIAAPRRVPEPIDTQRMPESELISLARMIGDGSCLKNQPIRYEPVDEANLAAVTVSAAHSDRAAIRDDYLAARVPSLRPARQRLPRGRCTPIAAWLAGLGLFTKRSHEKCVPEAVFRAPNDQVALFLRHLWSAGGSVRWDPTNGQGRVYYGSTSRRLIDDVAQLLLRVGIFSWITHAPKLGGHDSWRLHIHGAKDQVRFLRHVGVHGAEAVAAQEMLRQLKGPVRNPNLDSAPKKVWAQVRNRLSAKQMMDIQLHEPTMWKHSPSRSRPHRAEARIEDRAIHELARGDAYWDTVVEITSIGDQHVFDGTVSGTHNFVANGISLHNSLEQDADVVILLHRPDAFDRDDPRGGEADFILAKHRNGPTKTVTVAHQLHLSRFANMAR
# Protein RecA = target: T3, Protein RecA (Mycobacterium tuberculosis, UniProt P9WHJ3); experiment: Fluorescence Cell-Free Homogeneous Dose Retest to Identify Inhibitors of RecA-Intein Splicing Activity. [Related pubchem assays (depositor defined):AID2097, AID2223, AID489010, AID492950]; assay type: functional
# T3 sequence (P9WHJ3 whole entry): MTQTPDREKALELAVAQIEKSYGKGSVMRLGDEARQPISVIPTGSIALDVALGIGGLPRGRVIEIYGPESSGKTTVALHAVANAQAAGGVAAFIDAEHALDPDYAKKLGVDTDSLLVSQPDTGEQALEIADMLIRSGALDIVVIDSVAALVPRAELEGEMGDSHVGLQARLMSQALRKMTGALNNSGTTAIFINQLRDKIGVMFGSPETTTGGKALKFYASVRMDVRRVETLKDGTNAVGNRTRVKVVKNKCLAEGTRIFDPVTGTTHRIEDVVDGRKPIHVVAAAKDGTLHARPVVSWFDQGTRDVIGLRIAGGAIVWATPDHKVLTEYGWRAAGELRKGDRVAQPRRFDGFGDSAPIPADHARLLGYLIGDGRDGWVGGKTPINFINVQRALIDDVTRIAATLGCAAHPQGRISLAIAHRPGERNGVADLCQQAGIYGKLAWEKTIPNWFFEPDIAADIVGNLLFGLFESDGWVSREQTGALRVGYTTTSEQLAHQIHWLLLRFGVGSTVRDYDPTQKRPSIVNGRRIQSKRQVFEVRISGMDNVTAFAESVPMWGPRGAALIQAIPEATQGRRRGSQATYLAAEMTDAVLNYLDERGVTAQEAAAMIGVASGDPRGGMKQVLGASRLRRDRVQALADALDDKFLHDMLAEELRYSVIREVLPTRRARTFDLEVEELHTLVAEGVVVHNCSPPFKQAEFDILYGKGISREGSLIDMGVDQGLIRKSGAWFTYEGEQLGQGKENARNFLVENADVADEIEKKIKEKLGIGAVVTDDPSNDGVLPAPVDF
# [20] = target: Protein-arginine deiminase type-4 (Homo sapiens, UniProt Q9UM07); experiment: IC50 against protein arginine deiminase 4 – biochemical, fluorescence readout, dose response (AID 492970)
# [21] = target: 1-acylglycerol-3-phosphate O-acyltransferase ABHD5/Perilipin-5 (Homo sapiens, UniProt Q00G26+Q8WTS1); experiment: Luminescence-based biochemical high throughput dose response assay for inhibitors of the interaction of the lipase co-activator protein, abhydrolase domain containing 5 (ABHD5) with perilipin-5 (MLDP; PLIN5) (2K validation set). [Related pubchem assays (depositor defined):AID493035, AID493241]
# Perilipin-1/ABHD5 = Perilipin-1/ABHD5 (Homo sapiens, UniProt O60240+Q8WTS1); experiment: Luminescence-based biochemical high throughput dose response assay for inhibitors of the interaction of the lipase co-activator protein, abhydrolase domain containing 5 (ABHD5) with perilipin-1 (PLIN1) (2K validation set). [Related pubchem assays (depositor defined):AID493027, AID493057]
# Perilipin-1/ABHD5, sequence (Q8WTS1 whole entry, the tested form may be a part): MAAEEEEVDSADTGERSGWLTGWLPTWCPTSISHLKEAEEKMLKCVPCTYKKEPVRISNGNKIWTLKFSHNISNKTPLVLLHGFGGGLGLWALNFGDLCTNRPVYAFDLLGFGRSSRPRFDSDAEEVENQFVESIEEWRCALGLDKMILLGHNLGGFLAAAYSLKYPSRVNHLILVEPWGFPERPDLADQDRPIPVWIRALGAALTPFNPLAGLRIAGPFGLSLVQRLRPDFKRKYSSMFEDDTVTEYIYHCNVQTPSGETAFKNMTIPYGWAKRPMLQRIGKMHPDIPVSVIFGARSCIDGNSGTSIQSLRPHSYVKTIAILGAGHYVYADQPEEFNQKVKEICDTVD
# Perilipin-1/ABHD5, sequence (O60240 whole entry, the tested form may be a part): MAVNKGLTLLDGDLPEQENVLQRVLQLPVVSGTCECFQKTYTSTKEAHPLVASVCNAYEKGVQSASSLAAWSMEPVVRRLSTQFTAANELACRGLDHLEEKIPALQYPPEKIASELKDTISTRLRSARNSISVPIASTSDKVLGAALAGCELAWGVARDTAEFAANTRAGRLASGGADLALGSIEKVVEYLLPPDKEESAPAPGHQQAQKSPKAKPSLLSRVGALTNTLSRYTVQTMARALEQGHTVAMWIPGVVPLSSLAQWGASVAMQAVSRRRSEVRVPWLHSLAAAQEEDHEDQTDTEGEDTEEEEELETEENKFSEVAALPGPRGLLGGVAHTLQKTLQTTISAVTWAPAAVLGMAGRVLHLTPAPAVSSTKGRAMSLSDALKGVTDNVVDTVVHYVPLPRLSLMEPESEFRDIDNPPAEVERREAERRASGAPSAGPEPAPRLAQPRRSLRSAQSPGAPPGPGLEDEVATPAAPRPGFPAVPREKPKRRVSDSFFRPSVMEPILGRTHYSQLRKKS
# 1-acylglycerol-3-phosphate O-acyltransferase ABHD5/Perilipin-5, sequence (Q00G26 whole entry, the tested form may be a part): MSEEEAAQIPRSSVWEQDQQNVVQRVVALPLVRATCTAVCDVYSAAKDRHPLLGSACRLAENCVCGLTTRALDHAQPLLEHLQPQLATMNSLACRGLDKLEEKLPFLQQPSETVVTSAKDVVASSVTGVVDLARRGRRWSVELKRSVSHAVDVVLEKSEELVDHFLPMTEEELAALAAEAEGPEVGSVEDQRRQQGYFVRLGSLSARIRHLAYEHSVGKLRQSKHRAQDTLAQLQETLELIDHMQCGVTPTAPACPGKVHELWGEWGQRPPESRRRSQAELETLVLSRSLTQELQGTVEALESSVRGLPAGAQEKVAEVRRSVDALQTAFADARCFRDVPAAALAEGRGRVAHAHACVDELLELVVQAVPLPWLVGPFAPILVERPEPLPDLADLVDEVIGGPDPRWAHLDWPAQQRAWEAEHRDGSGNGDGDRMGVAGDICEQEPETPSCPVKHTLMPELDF
# 1-acylglycerol-3-phosphate O-acyltransferase ABHD5/Perilipin-5, sequence (Q8WTS1 whole entry, the tested form may be a part): as the sequence (Q8WTS1 whole entry, the tested form may be a part) above
# Cysteine protease ATG4B, sequence (Q9Y4P1 whole entry): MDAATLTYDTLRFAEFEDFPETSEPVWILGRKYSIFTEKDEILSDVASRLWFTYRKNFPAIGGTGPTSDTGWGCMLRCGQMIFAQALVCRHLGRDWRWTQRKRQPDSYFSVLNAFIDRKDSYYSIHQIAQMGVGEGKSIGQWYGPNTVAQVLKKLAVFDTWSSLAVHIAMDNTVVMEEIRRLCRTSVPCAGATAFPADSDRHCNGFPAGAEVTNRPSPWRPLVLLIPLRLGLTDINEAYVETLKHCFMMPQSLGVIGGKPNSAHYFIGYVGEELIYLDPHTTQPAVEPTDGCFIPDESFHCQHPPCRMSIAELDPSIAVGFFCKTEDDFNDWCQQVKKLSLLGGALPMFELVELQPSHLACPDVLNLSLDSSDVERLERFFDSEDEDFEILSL
# Voltage-gated inwardly rectifying potassium channel KCNH2, sequence (Q12809 whole entry): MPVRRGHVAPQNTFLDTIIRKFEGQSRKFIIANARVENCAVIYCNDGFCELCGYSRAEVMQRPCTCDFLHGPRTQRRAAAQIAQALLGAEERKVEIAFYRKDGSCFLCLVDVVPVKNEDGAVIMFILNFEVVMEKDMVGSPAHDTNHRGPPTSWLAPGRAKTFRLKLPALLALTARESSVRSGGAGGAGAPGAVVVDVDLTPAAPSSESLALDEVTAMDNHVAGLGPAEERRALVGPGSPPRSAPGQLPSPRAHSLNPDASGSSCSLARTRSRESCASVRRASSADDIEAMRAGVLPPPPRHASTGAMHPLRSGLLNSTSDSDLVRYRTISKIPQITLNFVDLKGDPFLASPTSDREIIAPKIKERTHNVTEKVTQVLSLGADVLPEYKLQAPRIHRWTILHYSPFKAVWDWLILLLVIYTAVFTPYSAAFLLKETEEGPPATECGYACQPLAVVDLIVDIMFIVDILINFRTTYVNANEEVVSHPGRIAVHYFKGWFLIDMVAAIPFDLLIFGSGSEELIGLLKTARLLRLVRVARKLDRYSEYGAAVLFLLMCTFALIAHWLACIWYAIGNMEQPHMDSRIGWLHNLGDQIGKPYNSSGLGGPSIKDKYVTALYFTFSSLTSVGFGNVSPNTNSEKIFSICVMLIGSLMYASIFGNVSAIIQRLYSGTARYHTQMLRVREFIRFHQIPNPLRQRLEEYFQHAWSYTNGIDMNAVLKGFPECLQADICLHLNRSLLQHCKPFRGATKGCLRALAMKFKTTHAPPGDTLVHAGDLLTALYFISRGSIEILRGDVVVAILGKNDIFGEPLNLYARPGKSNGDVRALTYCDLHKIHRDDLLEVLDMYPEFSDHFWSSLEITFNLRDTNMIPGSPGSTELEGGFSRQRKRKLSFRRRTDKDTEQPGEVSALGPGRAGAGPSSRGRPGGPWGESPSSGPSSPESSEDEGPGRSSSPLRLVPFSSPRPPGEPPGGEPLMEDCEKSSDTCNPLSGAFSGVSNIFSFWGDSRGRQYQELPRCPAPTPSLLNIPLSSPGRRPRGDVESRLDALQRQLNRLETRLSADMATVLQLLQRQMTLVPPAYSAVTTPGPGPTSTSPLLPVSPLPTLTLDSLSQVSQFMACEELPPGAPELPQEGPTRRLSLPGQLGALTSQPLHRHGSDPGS
# Protein-arginine deiminase type-4, sequence (Q9UM07 whole entry, the tested form may be a part): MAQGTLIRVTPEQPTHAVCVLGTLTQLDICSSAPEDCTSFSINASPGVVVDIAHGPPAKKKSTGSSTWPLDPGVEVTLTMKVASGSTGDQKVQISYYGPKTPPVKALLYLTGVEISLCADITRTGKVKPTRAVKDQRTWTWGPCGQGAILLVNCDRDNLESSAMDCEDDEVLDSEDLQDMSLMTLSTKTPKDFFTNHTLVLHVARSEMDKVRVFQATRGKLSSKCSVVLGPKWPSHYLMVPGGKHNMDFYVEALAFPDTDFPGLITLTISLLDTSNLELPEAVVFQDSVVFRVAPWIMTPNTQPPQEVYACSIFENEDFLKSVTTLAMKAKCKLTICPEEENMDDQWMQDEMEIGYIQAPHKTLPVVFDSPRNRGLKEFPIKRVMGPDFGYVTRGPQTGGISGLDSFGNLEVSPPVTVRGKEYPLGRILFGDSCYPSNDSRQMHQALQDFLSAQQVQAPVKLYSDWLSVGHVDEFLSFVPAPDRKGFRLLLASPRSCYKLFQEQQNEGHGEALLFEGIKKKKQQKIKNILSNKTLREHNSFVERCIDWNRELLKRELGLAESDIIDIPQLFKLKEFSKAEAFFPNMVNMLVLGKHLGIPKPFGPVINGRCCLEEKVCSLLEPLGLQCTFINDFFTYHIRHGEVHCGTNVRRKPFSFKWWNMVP
# Phospholipase A2, sequence (P04054 whole entry): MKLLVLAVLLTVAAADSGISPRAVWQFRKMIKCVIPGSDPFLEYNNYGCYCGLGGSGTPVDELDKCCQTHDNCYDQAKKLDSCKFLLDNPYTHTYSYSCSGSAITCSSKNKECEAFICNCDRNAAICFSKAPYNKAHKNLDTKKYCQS
smiles,measurement,setting,value
CC(C)(C)c1ccc(-c2noc(CCC(=O)NCC3CCCO3)n2)cc1 (stereo unspecified),IC50,Jurkat,13.4 µM (active)
same,AC50,[1],< 0.26 µM (active)
same,AC50,[2],0.293 µM (active)
same,AC50,[3],0.359 µM (active)
same,IC50,[4],> 80 µM (inactive)
same,AC50,A-375 [5],> 35 µM (active)
same,IC50,HEK293 [6],70.9 µM (inactive)
same,AC50,[7],> 70 µM (inactive)
same,AC50,A-375 [8],> 35 µM (active)
same,IC50,[9],> 39.8 µM (not active)
same,EC50,[10],< 0.1 µM (active)
same,AC50,[11],0.275 µM (active)
same,EC50,[12],0.152 µM (active)
same,EC50,[13],9.11 µM (active)
same,AC50,[14],67.1 µM (active)
same,IC50,HEK293 [15],1.54 µM (active)
CC(C)C[C@H](NC(=O)OC(C)(C)C)C(=O)N/N=C/C1=Cc2ccccc2OC1C (stereo partly specified),IC50,Cysteine protease ATG4B,37.1 µM (inactive)
same,EC50,[16],3.34 µM (active)
same,IC50,Phospholipase A2,15.4 µM (active)
same,EC50,[17],> 60 µM (not active)
Cc1ccc(S(=O)(=O)N[C@@H](Cc2ccccc2)C(=O)CCl)cc1 [TPCK],AC50,[18],12.6 µM (inconclusive)
same,AC50,[19],2.03 µM (active)
same,EC50,Protein RecA,0.712 µM (active)
same,IC50,[20],13 µM (inactive)
same,IC50,[21],1.9 µM (active)
same,IC50,Perilipin-1/ABHD5,1.87 µM (active)
